Test results from US20100120763A1, “IMIDAZO[5,1-C][1,2,4]BENZOTRIAZINE DERIVATIVES AS INHIBITORS OF PHOSPHODIESTERASES” (priority 2008, published 2010).
pIC50: −log10 of the molar value. Like-named read-outs stand apart in the source and are kept apart here.

Assays:
PDE10A = molecular target: T1, PDE10A (Homo sapiens, UniProt Q9Y233); experiment: Inhibition of recombinant PDE10A (baculovirus/SF21 system), [3H]-cAMP SPA; format: biochemical
T1 construct: made in house; host or cells: SF21 insect cells (baculovirus)

PDE2A = molecular target: T2, PDE2A (Homo sapiens, UniProt O00408); experiment: Inhibition of recombinant PDE2A (expressed in baculovirus/SF21-cells), [3H]-cAMP SPA; format: biochemical
T2 construct: made in house; host or cells: SF21 insect cells (baculovirus)
Summary of the method: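 Membrane fraction of baculovirus/SF21-expressed PDE2A was incubated 30 min at 37° C in Tris-HCl/MgCl2 pH 7.4 with 0.5 μM [3H]-cAMP and 1000 nM cGMP as activator. Product was detected by SPA scintillation. IC50 used a Hill-plot 2-parameter model.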

[1] = recombinant PDE10A1, cytosolic, 0.1 μM [3H]-cAMP, 37° C., 30 minutes, read-out: PDE10A IC50

T1 sequence (Q9Y233 1-779 isoform Q9Y233-1): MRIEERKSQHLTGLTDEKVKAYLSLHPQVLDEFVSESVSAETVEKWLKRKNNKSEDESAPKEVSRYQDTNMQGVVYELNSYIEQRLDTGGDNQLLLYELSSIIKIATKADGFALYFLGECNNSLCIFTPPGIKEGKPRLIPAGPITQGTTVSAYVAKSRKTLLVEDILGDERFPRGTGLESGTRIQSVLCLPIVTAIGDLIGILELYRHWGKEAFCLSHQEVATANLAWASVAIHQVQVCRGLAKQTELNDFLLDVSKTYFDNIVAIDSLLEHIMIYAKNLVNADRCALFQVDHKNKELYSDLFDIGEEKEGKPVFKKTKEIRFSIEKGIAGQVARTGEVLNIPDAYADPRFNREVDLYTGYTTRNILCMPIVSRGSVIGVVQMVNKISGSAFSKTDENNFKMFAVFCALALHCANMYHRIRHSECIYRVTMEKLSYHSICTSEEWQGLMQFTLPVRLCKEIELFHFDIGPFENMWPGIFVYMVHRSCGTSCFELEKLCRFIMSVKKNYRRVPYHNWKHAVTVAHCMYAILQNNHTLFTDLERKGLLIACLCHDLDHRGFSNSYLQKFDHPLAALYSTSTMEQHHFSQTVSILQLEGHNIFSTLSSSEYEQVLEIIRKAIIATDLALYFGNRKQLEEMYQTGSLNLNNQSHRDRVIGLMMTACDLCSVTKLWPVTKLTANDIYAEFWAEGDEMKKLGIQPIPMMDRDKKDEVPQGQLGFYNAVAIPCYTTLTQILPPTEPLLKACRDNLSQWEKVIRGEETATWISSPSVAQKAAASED
T2 sequence (O00408 whole entry): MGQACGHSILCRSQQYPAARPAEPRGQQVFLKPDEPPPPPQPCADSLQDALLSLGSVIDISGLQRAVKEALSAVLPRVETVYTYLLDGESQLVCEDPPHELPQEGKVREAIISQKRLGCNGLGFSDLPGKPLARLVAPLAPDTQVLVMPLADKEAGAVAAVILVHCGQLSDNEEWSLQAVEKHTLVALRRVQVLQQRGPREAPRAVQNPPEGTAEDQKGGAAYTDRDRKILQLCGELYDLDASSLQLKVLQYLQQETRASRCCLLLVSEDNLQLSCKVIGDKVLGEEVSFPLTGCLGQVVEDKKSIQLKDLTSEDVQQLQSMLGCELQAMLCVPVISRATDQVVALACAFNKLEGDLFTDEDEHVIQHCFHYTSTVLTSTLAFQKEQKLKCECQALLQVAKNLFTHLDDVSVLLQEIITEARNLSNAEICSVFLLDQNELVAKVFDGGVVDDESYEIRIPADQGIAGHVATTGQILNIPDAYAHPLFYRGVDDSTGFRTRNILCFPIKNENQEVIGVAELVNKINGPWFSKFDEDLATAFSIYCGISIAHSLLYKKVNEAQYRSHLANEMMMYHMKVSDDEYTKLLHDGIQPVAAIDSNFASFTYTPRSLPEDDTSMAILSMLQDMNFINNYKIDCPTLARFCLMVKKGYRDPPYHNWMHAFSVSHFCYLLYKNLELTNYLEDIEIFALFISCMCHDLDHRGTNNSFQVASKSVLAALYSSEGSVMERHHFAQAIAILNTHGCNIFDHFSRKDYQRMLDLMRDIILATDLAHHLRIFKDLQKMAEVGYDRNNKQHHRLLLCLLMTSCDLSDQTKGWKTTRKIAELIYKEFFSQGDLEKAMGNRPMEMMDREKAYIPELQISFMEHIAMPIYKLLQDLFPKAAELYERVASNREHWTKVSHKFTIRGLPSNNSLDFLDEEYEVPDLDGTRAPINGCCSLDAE

Row | melting point | pIC50 (PDE10A; [1]) | pIC50 (PDE2A) | Structure (SMILES) | pIC50 (PDE10A)
1 | 190 to 193 °C | – | – | Cc1nc(-c2cc(Cl)ccc2Cl)n2c1nnc1ccc(-c3cc(Cl)ccc3Cl)cc12 | –
2 | 152 to 155 °C | – | – | CCOc1ccc(F)c(-c2ccc3nnc4c(C)nc(-c5cc(OCC)ccc5F)n4c3c2)c1 | –
3 | 186 to 190 °C | 6.12 | 7.53 | Cc1nc(-c2cc(Cl)ccc2Cl)n2c1nnc1cc(F)ccc12 [Example 6, 1-(2,5-dichlorophenyl)-7-fluoro-3-methyl-imidazo[5,1-c][1,2,4]benzotriazine] | –
4 | 230 °C | < 5.00 | < 5.00 | Cc1ncn2c1nnc1ccc(F)cc12 [Example 11, 8-fluoro-3-methylbenzo[e]imidazo[5,1-c][1,2,4]triazine] | –
5 | 179 to 182 °C | 6.94 | – | COc1ccccc1-c1nc(C)c2nnc3ccc(Cl)cc3n12 [Example 39, 8-chloro-1-(2-methoxyphenyl)-3-methylbenzo[e]imidazo[5,1-c][1,2,4]triazine] | –
6 | 247 to 249 °C | – | – | COc1cc2nnc3c(C)nc(-c4cc(C)ccc4Cl)n3c2cc1OC [Example 56, 1-(2-chloro-5-methylphenyl)-7,8-dimethoxy-3-methylbenzo[e]imidazo[5,1-c][1,2,4]triazine] | –
7 | 157 to 159 °C | – | – | Cc1nc(-c2ccccc2Cl)n2c1nnc1cc(F)c(F)cc12 [Example 58, 1-(2-chlorophenyl)-7,8-difluoro-3-methylbenzo[e]imidazo[5,1-c][1,2,4]triazine] | –
8 | 123 to 125.5 °C | – | – | Cc1nc(CC(C)C)n2c1nnc1cc(F)c(F)cc12 [Example 59, 7,8-difluoro-1-isobutyl-3-methylbenzo[e]imidazo[5,1-c][1,2,4]triazine] | –
9 | – | 8.27 | 6.56 | COc1cc(OCc2ccccc2)cc2c1nnc1c(C)nc(-c3cnccc3C)n12 [Example 157, 8-(benzyloxy)-6-methoxy-3-methyl-1-(4-methylpyridin-3-yl)imidazo[5,1-c][1,2,4]benzotriazine] | –
10 | – | 7.30 | 8.16 | Cc1nc(-c2cc(Cl)ccc2Cl)n2c1nnc1ccc(N3CCCCC3)cc12 [Example 180, 1-(2,5-Dichloro-phenyl)-3-methyl-8-piperidin-1-yl-imidazo[5,1-c][1,2,4]benzotriazine] | –

The remaining lines, values behind:

Row | Structure (SMILES) | melting point | pIC50 (PDE10A; [1]) | pIC50 (PDE2A) | pIC50 (PDE10A)
11 | Cc1nc(-c2cc(OC(C)C)ccc2F)n2c1nnc1ccc(-c3cc(OC(C)C)ccc3F)cc12 | 160.5 to 162 °C | – | – | –
12 | CCCCOc1ccc(F)c(-c2nc(C)c3nnc4cc(F)ccc4n23)c1 | 91 to 94 °C | – | – | –
13 | CCCOc1ccc(F)c(-c2nc(C)c3nnc4cc(F)ccc4n23)c1 | 119 to 122 °C | – | – | –
14 | CCCc1nc(C)c2nnc3ccc(F)cc3n12 [Example 1, 8-fluoro-3-methyl-1-propyl-imidazo[5,1-c][1,2,4]benzotriazine] | 124.5 to 126.5 °C | 6.20 | 6.15 | –
15 | CCCc1nc(C)c2nnc3cc(OC)ccc3n12 [Example 2, 7-methoxy-3-methyl-1-propyl-imidazo[5,1-c][1,2,4]benzotriazine] | 159 to 162 °C | 6.40 | 6.26 | –
16 | CCc1nc(C)c2nnc3ccc(F)cc3n12 [Example 3, 1-ethyl-8-fluoro-3-methyl-imidazo[5,1-c][1,2,4]benzotriazine] | 187 to 190 °C | 5.41 | 5.42 | –
17 | Cc1nc(C2CCCCC2)n2c1nnc1ccc(F)cc12 [Example 4, 1-cyclohexyl-8-fluoro-3-methyl-imidazo[5,1-c][1,2,4]benzotriazine] | 246 to 250 °C (dec.) | 6.64 | 6.27 | –
18 | COc1ccc2nnc3c(C)nc(-c4cc(Cl)ccc4Cl)n3c2c1 [Example 5, 1-(2,5-dichlorophenyl)-8-methoxy-3-methyl-imidazo[5,1-c][1,2,4]benzotriazine] | 165 to 168 °C | 7.63 | 8.48 | –
19 | COc1ccc2c(c1)nnc1c(C)nc(-c3cc(Cl)ccc3Cl)n12 [Example 7, 1-(2,5-dichlorophenyl)-7-methoxy-3-methyl-imidazo[5,1-c][1,2,4]benzotriazine] | 144 to 147 °C | 6.59 | 7.75 | –
20 | Cc1nc(-c2cc(Cl)ccc2Cl)n2c1nnc1ccc(F)cc12 [Example 8, 1-(2,5-dichlorophenyl)-8-fluoro-3-methylbenzo[e]imidazo[5,1-c][1,2,4]triazine] | 146 to 149 °C | 6.75 | 7.44 | –
21 | CCC(C)c1nc(C)c2nnc3ccc(F)cc3n12 (stereo not shown) [Example 10, 1-sec-butyl-8-fluoro-3-methylbenzo[e]imidazo[5,1-c][1,2,4]triazine] | 169 to 171.5 °C | – | 5.82 | 6.39
22 | COc1cc2nnc3c(C)nc(-c4ccccc4Cl)n3c2cc1OC [Example 46, 1-(2-chlorophenyl)-7,8-dimethoxy-3-methylbenzo[e]imidazo[5,1-c][1,2,4]triazine] | 269 to 272 °C | – | – | –
23 | COc1cc2nnc3c(C)nc(-c4ccccc4C)n3c2cc1OC [Example 49, 7,8-dimethoxy-3-methyl-1-o-tolylbenzo[e]imidazo[5,1-c][1,2,4]triazine] | 219 to 221 °C | – | – | –
24 | COc1cc2nnc3c(C)nc(CC(C)C)n3c2cc1OC [Example 53, 1-isobutyl-7,8-dimethoxy-3-methylbenzo[e]imidazo[5,1-c][1,2,4]triazine] | 196 to 199 °C | – | – | –
25 | COc1cc2nnc3c(C)nc(Br)n3c2cc1OC [Example 54, 1-bromo-7,8-dimethoxy-3-methylbenzo[e]imidazo[5,1-c][1,2,4]triazine] | 200 °C | – | – | –
26 | COc1cc2nnc3c(C)nc(-c4cc(Cl)ccc4Cl)n3c2cc1OC [Example 55, 1-(2,5-dichlorophenyl)-7,8-dimethoxy-3-methylbenzo[e]imidazo[5,1-c][1,2,4]triazine] | 175 °C | – | – | –
27 | COc1cc2nnc3c(C)nc(-c4ccccc4C(F)(F)F)n3c2cc1OC [Example 57, 7,8-dimethoxy-3-methyl-1-(2-(trifluoromethyl)phenyl)benzo[e]imidazo[5,1-c][1,2,4]triazine] | 147 to 150 °C | – | – | –
28 | Cc1cn(-c2ccc3nnc4c(C)nc(C5CCCCC5)n4c3c2)c(C2CCCCC2)n1 [Example 179, 1-Cyclohexyl-8-(2-cyclohexyl-4-methyl-imidazol-1-yl)-3-methyl-imidazo[5,1-c][1,2,4]benzotriazine] | – | 6.49 | 6.62 | –
29 | Cc1nc(-c2cc(Cl)ccc2Cl)n2c1nnc1ccc(N3CCOCC3)cc12 [Example 181, 1-(2,5-Dichloro-phenyl)-3-methyl-8-morpholin-4-yl-imidazo[5,1-c][1,2,4]benzotriazine] | – | 7.61 | 8.64 | –
30 | Cc1cn(-c2ccc3nnc4c(C)nc(CC(C)C)n4c3c2)c(CC(C)C)n1 [Example 182, 1-Isobutyl-8-(2-isobutyl-4-methyl-imidazol-1-yl)-3-methyl-imidazo[5,1-c][1,2,4]benzotriazine] | – | 7.48 | 6.87 | –
31 | Cc1nc(-c2ccccc2Cl)n2c1nnc1ccc(N3CCCCC3)cc12 [Example 183, 1-(2-Chloro-phenyl)-3-methyl-8-piperidin-1-yl-imidazo[5,1-c][1,2,4]benzotriazine] | – | 7.92 | 8.11 | –
